≈ marks a conversion by molar mass, not a printed value.
Assays:
[1] = Lipophilicity, logD of the compound at pH 7.4; type: physicochemical; conditions: buffer
[2] = Aqueous solubility of the compound in pH 7.4 buffer; type: physicochemical
[3] = target: Voltage-gated inwardly rectifying potassium channel KCNH2 (Homo sapiens, UniProt Q12809); assay: Inhibition of human ERG; type: toxicity
[4] = Metabolic stability in rat hepatocytes measured per million cells; type: ADME, cell-based, Hepatocyte; conditions: read-out: CLH
[5] = Metabolic stability in human hepatocytes measured per million cells; type: ADME, cell-based, Hepatocyte; conditions: read-out: CLH
[6] = Oral bioavailability in rat; type: ADME, organism-based; conditions: in vivo
[7] = Clearance in rat; type: ADME; conditions: in vivo
[8] = target: T1, Monocarboxylate transporter 4 (Homo sapiens, UniProt O15427); assay: Inhibition of MCT4 in human SK-BR-3 cells assessed as inhibition of lactate efflux incubated for 4 hrs by automated microplate reader analysis; type: cell-based
T1 sequence (O15427 whole entry): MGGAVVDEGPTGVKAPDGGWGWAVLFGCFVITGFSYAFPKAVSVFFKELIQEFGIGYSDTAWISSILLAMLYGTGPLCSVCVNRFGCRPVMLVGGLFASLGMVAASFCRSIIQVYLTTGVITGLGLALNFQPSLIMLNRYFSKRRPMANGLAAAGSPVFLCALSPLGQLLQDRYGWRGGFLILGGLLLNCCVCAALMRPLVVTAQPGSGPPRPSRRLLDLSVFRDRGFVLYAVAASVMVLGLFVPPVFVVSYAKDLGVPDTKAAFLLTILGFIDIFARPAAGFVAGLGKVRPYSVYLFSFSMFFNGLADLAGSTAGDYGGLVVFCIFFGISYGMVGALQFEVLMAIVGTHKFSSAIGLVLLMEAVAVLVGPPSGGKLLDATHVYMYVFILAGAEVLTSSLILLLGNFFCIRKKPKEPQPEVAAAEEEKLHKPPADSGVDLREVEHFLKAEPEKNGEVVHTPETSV

[9] = Efflux ratio of apparent permeability basolateral to apical side over apical to basolateral side in human Caco-2 cells; type: ADME, cell-based
[10] = target: T2, Monocarboxylate transporter 1 (Homo sapiens, UniProt P53985); assay: Inhibition of MCT1 in human K562 cells assessed as inhibition of lactate efflux incubated for 1 hr by FLIPR method; type: cell-based
T2 sequence (P53985 whole entry): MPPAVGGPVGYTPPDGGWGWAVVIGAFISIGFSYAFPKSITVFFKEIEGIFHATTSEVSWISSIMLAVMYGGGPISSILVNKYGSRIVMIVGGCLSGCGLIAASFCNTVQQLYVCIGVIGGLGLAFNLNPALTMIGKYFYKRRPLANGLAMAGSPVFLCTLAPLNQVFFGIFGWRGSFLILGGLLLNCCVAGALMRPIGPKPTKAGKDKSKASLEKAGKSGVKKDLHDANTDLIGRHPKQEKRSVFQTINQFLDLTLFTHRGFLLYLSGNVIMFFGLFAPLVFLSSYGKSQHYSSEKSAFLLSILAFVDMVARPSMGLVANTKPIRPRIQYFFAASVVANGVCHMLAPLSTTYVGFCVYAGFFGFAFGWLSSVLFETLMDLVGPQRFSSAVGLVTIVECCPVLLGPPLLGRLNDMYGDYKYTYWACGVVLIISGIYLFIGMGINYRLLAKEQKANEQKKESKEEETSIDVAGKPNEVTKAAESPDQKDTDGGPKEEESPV

[11] = Apparent permeability of the compound across apical side to basolateral side in human Caco-2 cells; type: ADME, cell-based
[12] = Thermodynamic solubility of the compound in FaSSIF using crystalline form of sample at pH 6.5; type: physicochemical; conditions: read-out: Therm_solubility
[13] = Plasma protein binding in human assessed as free fraction; type: ADME, cell-free
[14] = Plasma protein binding in rat assessed as free fraction; type: ADME, cell-free
[15] = Plasma protein binding in dog assessed as free fraction; type: ADME, cell-free, Canis lupus familiaris
[16] = Metabolic stability in human hepatocytes assessed as intrinsic clearance measured per million cells; type: ADME, cell-based, Hepatocyte; conditions: read-out: CLH
[17] = Metabolic stability in dog hepatocytes assessed as intrinsic clearance measured per million cells; type: ADME, cell-based, Canis lupus familiaris, Hepatocyte; conditions: read-out: CLH
[18] = Clearance in Wistar rat at 2 mg/kg, iv; type: ADME, organism-based; conditions: in vivo
[19] = Clearance in Beagle dog at 1 mg/kg, iv; type: ADME, organism-based, Canis lupus familiaris; conditions: in vivo
[20] = Oral bioavailability in Wistar rat at 5 mg/kg; type: ADME, organism-based; conditions: in vivo
[21] = Oral bioavailability in Beagle dog at 2 mg/kg; type: ADME, organism-based, Canis lupus familiaris; conditions: in vivo
[22] = tested on: NCI-H358; assay: Antiproliferative activity against human NCI-H358 cells assessed as cell growth inhibition; type: functional
[23] = Toxicity in mouse assessed as body weight loss at 100 mg/kg BID administered twice daily for 17 days via oral gavage; type: organism-based; conditions: in vivo, 408 h, time 17 day
[24] = Toxicity in mouse assessed as body weight loss at 100 mg/kg BID administered twice daily for 17 days via oral gavage in presence of cediranib; type: organism-based; conditions: in vivo, 408 h, time 17 day

Voltage-gated inwardly rectifying potassium channel KCNH2, sequence (Q12809 whole entry): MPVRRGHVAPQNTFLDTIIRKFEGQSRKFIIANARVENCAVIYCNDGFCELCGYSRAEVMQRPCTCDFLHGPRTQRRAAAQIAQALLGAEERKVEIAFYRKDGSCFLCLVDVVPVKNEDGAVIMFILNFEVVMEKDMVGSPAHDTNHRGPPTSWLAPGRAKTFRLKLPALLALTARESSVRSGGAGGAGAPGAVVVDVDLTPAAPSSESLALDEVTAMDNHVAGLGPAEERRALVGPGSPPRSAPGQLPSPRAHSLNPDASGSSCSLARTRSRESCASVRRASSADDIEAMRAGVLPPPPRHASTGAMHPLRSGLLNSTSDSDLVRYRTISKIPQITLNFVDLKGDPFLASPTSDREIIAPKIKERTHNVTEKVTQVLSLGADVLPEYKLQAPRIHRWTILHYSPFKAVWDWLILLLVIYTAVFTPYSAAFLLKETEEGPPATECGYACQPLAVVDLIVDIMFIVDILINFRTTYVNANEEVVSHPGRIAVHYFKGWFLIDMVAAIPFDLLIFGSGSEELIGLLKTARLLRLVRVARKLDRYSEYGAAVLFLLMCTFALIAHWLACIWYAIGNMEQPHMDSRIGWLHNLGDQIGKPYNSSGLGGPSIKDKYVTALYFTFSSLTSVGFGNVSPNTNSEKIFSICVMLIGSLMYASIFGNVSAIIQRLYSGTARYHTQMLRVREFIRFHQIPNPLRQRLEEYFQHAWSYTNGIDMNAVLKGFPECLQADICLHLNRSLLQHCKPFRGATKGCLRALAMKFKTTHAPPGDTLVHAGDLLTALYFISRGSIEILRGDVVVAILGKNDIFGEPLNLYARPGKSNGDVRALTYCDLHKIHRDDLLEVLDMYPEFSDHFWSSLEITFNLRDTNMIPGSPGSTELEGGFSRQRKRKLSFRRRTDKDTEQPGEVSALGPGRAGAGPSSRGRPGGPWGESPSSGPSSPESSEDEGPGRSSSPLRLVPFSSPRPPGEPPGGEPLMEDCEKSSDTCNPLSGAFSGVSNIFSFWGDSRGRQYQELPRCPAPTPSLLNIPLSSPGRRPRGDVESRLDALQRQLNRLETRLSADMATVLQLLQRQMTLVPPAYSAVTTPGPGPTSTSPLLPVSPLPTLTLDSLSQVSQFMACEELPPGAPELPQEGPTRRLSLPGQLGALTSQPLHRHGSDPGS

With Cc1nc2nc(C)c(CCNC(=O)c3ccc(-c4ccccc4)cc3)c(C)n2n1 the logD [1] was 3.4 and the solubility [2] was 2 µM (≈ 0.771 µg/mL).
In the case of Cc1nc2nc(C)c(CCNC(=O)c3cnc(-c4ccc([C@@H]5COCCN5C)cc4)cn3)c(C)n2n1, the logD [1] is reported as 1.9 and the solubility [2] is reported as > 300 µM.
Work on Cc1nc2nc(C)c(C[C@@H]3CCN(c4ccc(-c5ccc(CN6CCOCC6)nn5)cc4)C3)c(C)n2n1 yielded a logD [1] of 2.3 and an IC50 [3] of 13 µM.
In the case of Cc1nc2ncnn2c(C)c1CCC(=O)Nc1nnc(-c2ccc(C(C)C)cc2)s1, the logD [1] is reported as 3.7.
In the case of Cc1nc2nc(C)c(CCNC(=O)c3cnc(-c4ccc([C@H]5COCCN5C)cc4)cn3)c(C)n2n1, the logD [1] is reported as 1.9 and the solubility [2] is reported as 224 µM (≈ 109 µg/mL).
Cc1nc2nc(C)c(CCNC(=O)c3cnc(-c4ccccc4)cn3)c(C)n2n1 gave a logD [1] of 2.4 and a solubility [2] of 3 µM (≈ 1.16 µg/mL).
In the case of Cc1nc2nc(C)c(C[C@@H]3CCN(c4cnc(-c5ccc(CN6CCN(C)CC6)cc5)cn4)C3)c(C)n2n1, the logD [1] is reported as 2, the IC50 [3] is reported as > 24 µM and the hepatocyte CLint [4] is reported as < 2 µL/min/1e6 cells. For the same compound, the hepatocyte CLint [5] was 1.9 µL/min/1e6 cells, the bioavailability [6] was 61% and the clearance [7] was 29 mL/min/kg.
Compound Cc1nc2nc(C)c(CCC(=O)Nc3nnc(-c4ccccc4)s3)c(C)n2n1 has a logD [1] of 2.8.
With CC(=O)N1CCN(Cc2ccc(-c3ccc(N4CC[C@@H](Oc5c(C)nc6nc(C)nn6c5C)C4)cc3)nn2)CC1 the logD [1] was 1.4 and the IC50 [3] was > 33 µM.
With Cc1nc2nc(C)c(O[C@@H]3CCN(c4ccc(-c5ccc(CN6CCN(C)CC6)nn5)cc4)C3)c(C)n2n1 the logD [1] was 1.4 and the IC50 [3] was > 33 µM.
With Cc1nc2nc(C)c(CCNC(=O)c3nnc(-c4ccccc4)s3)c(C)n2n1 the logD [1] was 2.5.
For Cc1nc2nc(C)c(C[C@@H]3CCN(c4ccc(-c5cnc(CN6CCOCC6)cn5)cc4)C3)c(C)n2n1, the logD [1] was 2.7.
With Cc1nc2nc(C)c(C[C@@H]3CCN(c4cnc(-c5ccc(CN6CCOCC6)cc5)cn4)C3)c(C)n2n1 the IC50 [8] was < 0.00038 µM, the logD [1] was 2.6 and the efflux ratio [9] was 1.1. For the same compound, the IC50 [3] was 1.8 µM, the hepatocyte CLint [4] was 13 µL/min/1e6 cells and the hepatocyte CLint [5] was 3.4 µL/min/1e6 cells. For the same compound, the bioavailability [6] was 47% and the clearance [7] was 53 mL/min/kg.
With Cc1nc2ncnn2c(C)c1CCC(=O)Nc1nnc(-c2ccccc2)s1 the logD [1] was 2.5.
With Cc1nc2nc(C)c(C[C@@H]3CCN(c4ccc(-c5ccc(CN6CCN(C)CC6)nn5)cc4)C3)c(C)n2n1 the logD [1] was 1.8 and the IC50 [3] was > 33 µM.
Cc1nc2nc(C)c(CCNC(=O)c3cnc(-c4ccc(CN5CCOCC5)cc4)cn3)c(C)n2n1 showed a logD [1] of 1.8, a solubility [2] of 138 µM (≈ 67.1 µg/mL) and an IC50 [3] of 24 µM. For the same compound, the hepatocyte CLint [4] was 17 µL/min/1e6 cells, the hepatocyte CLint [5] was 2.5 µL/min/1e6 cells and the bioavailability [6] was 34%. It also gave a clearance [7] of 31 mL/min/kg.
With Cc1nc2nc(C)c(O[C@@H]3CCN(c4ccc(-c5ccc(CN6CCOCC6)nn5)cc4)C3)c(C)n2n1 the logD [1] was 1.8, the IC50 [3] was 29 µM and the IC50 [10] was > 30 µM. The Papp A→B [11] was 13 ×10⁻⁶ cm/s, the solubility thermodynamic [12] was 839 µM (≈ 420 µg/mL) and the fraction unbound [13] was 0.32. It also gave a fraction unbound [14] of 0.3, a fraction unbound [15] of 0.39 and a hepatocyte CLint [16] of 1.9 µL/min/1e6 cells. For the same compound, the hepatocyte CLint [17] was 3.3 µL/min/1e6 cells, the clearance [18] was 15 mL/min/kg and the clearance [19] was 14 mL/min/kg. The bioavailability [20] was 106%, the bioavailability [21] was 84% and the GI50 [22] was 0.026 µM. The Activity [23] was “Non-Toxic” and the Activity [24] was “Non-Toxic”.

Reference: ChEMBL document CHEMBL5316265, “Discovery of Clinical Candidate AZD0095, a Selective Inhibitor of Monocarboxylate Transporter 4 (MCT4) for Oncology” (J Med Chem, 2023)
